This passage reports TGI and GI50 results from PubChem BioAssay (NCI).

Common to all, as to experiment: growth of human tumour cells (NCI), 48 h
The subject of assay [1] is OVCAR-3 ovarian.
For assay [2], the system named is NCI/ADR-RES ovarian.
Assay [3] relates to HCC-2998 colon.
Assay [4] concerns NCI-H23 lung.
Assay [5] deals with A498 renal.
The test system of assay [6] is MOLT-4 leukemia.
Assay [7] has as its system M14 melanoma.
The subject of assay [8] is CAKI-1 renal.
Assay [9] relates to HCT-15 colon.
Assay [10] deals with SR leukemia.

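Results reflect a 48-hour exposure of cells in 96-well plates to compound at five concentrations. GI50 is the concentration that inhibits growth by half. Definition used: TGI = concentration required for complete inhibition of growth.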 Where a SMILES comes first, the peptide text is derived from it. The star is where a group is joined. Cbz = O=C(OCc1ccccc1)*; NHNH2 = NN*

Regarding `c1ccc2c(c1)ccn1ccc3c4ccccc4nc-3c21`, the TGI was determined as 2.92 µM in assay [1]; 2.17 µM in [2]; 1.16 µM in assay [3]; 2.12 µM in [4]; 0.892 µM in assay [5]; 0.415 µM in [6]. In addition, the results for the TGI in assay [7] and in assay [8] were 1.51 µM and 2.09 µM, respectively.

As to `N#CCN(CC#N)C1CC=CCC1N(CC#N)CC#N` (stereo not drawn), the TGI in assay [9], in assay [1], in [2], in assay [4], in [6] and in [7] was greater than 100 µM throughout. In assay [8], this molecule gave a TGI greater than 100 µM.

Consider `CC1(C)OC[C@@H](O)[C@H](Br)CO1`, for which the TGI in [9], in assay [10], in [1], in assay [3], in assay [4] and in assay [5] was greater than 100 µM throughout. Besides, the TGI in assay [6], in [7] and in assay [8] was greater than 100 µM in each case.

Turning to `Cc1ccc2oc3c(c(Br)c(Br)n3C)c(=O)c2c1`, the TGI in assay [9] is greater than 100 µM; in [1], 46.8 µM; in assay [2], 52.5 µM; in assay [4], 46.3 µM; in [5], 41.3 µM; in assay [6], greater than 100 µM. Besides, the TGI in assay [7] is greater than 100 µM; in assay [8], 63.8 µM.

On to `CCOC(=O)C(C)c1nc2ccc(C(F)(F)F)cc2[nH]c1=O` (stereo not drawn), for which the TGI in [9], in assay [1], in assay [2], in assay [3], in assay [4] and in assay [5] was greater than 100 µM each time. Besides, the TGI in assay [6] and in assay [7] was greater than 100 µM throughout.

As to `CC(=O)C(=[N+]=[N-])C(=O)N(C)CCC#N`, the TGI in assay [9], in [10], in [1], in assay [4], in assay [5] and in assay [6] was greater than 10 µM throughout. In addition, the TGI in assay [7] was greater than 10 µM.

In the case of `O=c1[nH]c(=O)n(C2CC(O)C(CO)O2)cc1C#Cc1ccc(F)cc1` (stereo not drawn), the TGI in assay [9], in [10], in [1], in [3], in [4] and in [6] was greater than 100 µM each time. For the same molecule, the TGI in [7] and in assay [8] was greater than 100 µM each time.

With `COc1ccc2[nH]c3c(C)cc([N+](=O)[O-])c(C)c3c2c1`, the TGI in assay [9] was greater than 100 µM; in assay [10] it was 58.5 µM; in assay [1] it was greater than 100 µM; in [3], 67.7 µM; in [4], greater than 100 µM; in assay [5], 59.6 µM. Also, the TGI is greater than 100 µM in assay [6], 53.2 µM in assay [7] and greater than 100 µM in assay [8].

As to `N#Cc1c(-c2ccc(Cl)cc2)c2c(N=Nc3c(O)ccc4ccccc34)[nH]nc2[nH]c1=O`, the TGI is 2.09 µM in [9]; 0.0736 µM in assay [1]; 0.777 µM in assay [2]; 0.89 µM in [3]; 0.468 µM in [5]; 1.34 µM in assay [6]. Also, the TGI is 0.563 µM in [7] and 1.26 µM in assay [8].

Regarding `OC12c3ccccc3C3CCC4(OCCO4)C3C1c1ccccc12` (stereo not drawn), the TGI in assay [9], in assay [1], in [3], in [4], in [5] and in assay [6] was greater than 100 µM each time. Further, the TGI in [7] and in assay [8] was greater than 100 µM in each case.

`C=CCCCCOC1C=CC(O)C(CO)O1` (stereo not drawn): the TGI in assay [9], in assay [1], in [2], in [3], in assay [4] and in assay [5] was greater than 100 µM throughout. Besides, the TGI in assay [6], in assay [7] and in assay [8] was greater than 100 µM in each case.

On to `CC(CN(C)C)C(=O)c1ccccc1` (stereo not drawn), for which the TGI in assay [9] was 33.4 µM; in assay [10] it was 60.2 µM; in assay [1], 97.8 µM; in [3], 63 µM; in [4], 68 µM; in assay [5], greater than 76.5 µM. Further, the TGI is 27.6 µM in [6], greater than 55 µM in assay [7] and 15.6 µM in assay [8].

In the case of `CCOC(=O)CCC(NC(=O)OCc1ccccc1)C(=O)NC(CCC(=O)OCC)C(=O)NN` (stereo not drawn) (Cbz-Glu(OEt)-Glu(OEt)-NHNH2; configuration not given here), the TGI in assay [9], in [10], in [3], in assay [5], in [6] and in assay [7] was greater than 100 µM throughout.

Consider `O=C(Nc1sccc1S(=O)(=O)c1ccccc1)c1ccccc1`, for which the TGI in assay [9], in assay [1], in assay [2], in [3], in assay [4] and in assay [5] was greater than 100 µM throughout. Besides, the TGI in [6], in assay [7] and in assay [8] was greater than 100 µM each time.

Regarding `O=C1CCCCC/C1=C\c1ccccc1`, the TGI in assay [9], in [10], in assay [1], in [3], in assay [4] and in assay [5] was greater than 100 µM throughout. Also, the TGI in assay [6], in [7] and in assay [8] was greater than 100 µM throughout.

`COc1ccc(C(=O)N/N=C/c2c(C)n(C)n(-c3ccccc3)c2=O)cc1`: the TGI in [9], in assay [10], in [1], in assay [3], in assay [4] and in assay [5] was greater than 100 µM throughout. Moreover, the TGI in assay [6] and in assay [7] was greater than 100 µM each time.

For `O=C(OC/C=C1C=C(OC(=O)c2ccccc2)/C(=N/N(C(=O)c2ccccc2)c2ccccc2)O\1)c1ccccc1`, the TGI in assay [9] stood at 19.7 µM; in assay [1] it was 21.5 µM; in [3], 12.4 µM; in assay [5], 25.6 µM; in [6], 14 µM; in assay [7], 18.7 µM. For the same molecule, the TGI in [8] stood at 13.7 µM. Besides, the GI50 in [1] is 8.35 µM.

`CCCN(CCC)c1c([N+](=O)[O-])cc(C(=O)N(CCO)CCO)cc1[N+](=O)[O-]`: the TGI in assay [9], in [1], in assay [3], in [4], in assay [6] and in assay [7] was greater than 100 µM throughout. The molecule further came in with a TGI in assay [8] greater than 100 µM.

For the molecule `O=S(=O)(O)c1ccc2c(N=Nc3ccc(Cl)cc3)c(O)ccc2c1`, the TGI in assay [9], in [1], in assay [2], in assay [4], in assay [5] and in [6] was greater than 100 µM in each case. In addition, the TGI in assay [7] and in [8] was greater than 100 µM each time.

For `C=CCN(c1cc(OC)c2[nH]c(C(=O)OCC)c(C)c2c1[N+](=O)[O-])S(C)(=O)=O`, the TGI was greater than 100 µM in [9]; 80.2 µM in assay [1]; 72.6 µM in assay [2]; greater than 100 µM in assay [3]; greater than 100 µM in assay [4]; 65.6 µM in assay [5]. Besides, the TGI in assay [6] is 28.9 µM; in assay [7], greater than 100 µM; in [8] it was greater than 100 µM.

`O=C(Nc1cccc2ccccc12)c1ccccc1`: the TGI in assay [9], in assay [1], in [2], in [3], in assay [4] and in assay [5] was greater than 100 µM in each case. The TGI in [7] and in [8] was greater than 100 µM each time.

With `CC(=O)N(O)Cc1ccccc1`, the TGI in assay [9], in [10], in assay [1], in [3], in assay [4] and in assay [6] was greater than 100 µM each time. In addition, the TGI in assay [7] and in assay [8] was greater than 100 µM throughout.

`COc1ccc(-n2c(=O)n(-c3ccccc3)c(=O)n2-c2ccc(OC)cc2)cc1`: the TGI in assay [9], in assay [1], in [2], in assay [3], in assay [4] and in assay [5] was greater than 100 µM in each case. Also, the TGI is greater than 100 µM in assay [6], greater than 100 µM in [7] and 7.59 µM in [8].

With `CC1(C)CC(=O)c2c(nc3c(ccc4ccccc43)c2-c2ccc(NC(=O)CCCCC(=O)Nc3ccc(-c4c5c(nc6c4ccc4ccccc46)CC(C)(C)CC5=O)cc3)cc2)C1`, the TGI in [9] was 50.9 µM; in assay [1], 80.8 µM; in assay [2] it was 77.6 µM; in [6], 55.9 µM; in assay [7] it was greater than 100 µM; in assay [8], greater than 100 µM.
